Target: T1, F508del (Homo sapiens, UniProt P13569, DEL508-508)
T1 construct: expressed in transfected cells
Test: Membrane potential optical assay (FRET voltage-sensor dyes), identification of correction compounds
Format: cell-based
Conditions: NIH3T3 cells stably expressing F508del, procedures described above; for Emax: maximum efficacy, read-out: Max Efficacy; for EC50: modulation of CFTR activity
Description: (§1) NIH3T3 mouse fibroblasts stably expressing F508del are used for optical measurements of membrane potential. The cells are maintained at 37° C. in 5% CO2 and 90% humidity in Dulbecco's modified Eagle's medium supplemented with 2 mM glutamine, 10% fetal bovine serum, 1×NEAA, β-ME, 1× pen/strep, and 25 mM HEPES in 175 cm^2 culture flasks. For all optical assays, the cells were seeded at 12,000 cells/well in 384-well matrigel-coated plates and cultured for 18-24 hrs at 37° C. for the potentiator assay. For the correction assays, the cells are cultured at 37° C. with and without compounds for 18-24 hours.
Membrane potential optical methods for assaying F508del modulation properties of compounds.
The optical membrane potential assay utilized voltage-sensitive FRET sensors described by Gonzalez and Tsien (See Gonzalez, J. E. and R. Y. Tsien (1995) “Voltage sensing by fluorescence resonance energy transfer in single cells” Biophys J 69(4): 1272-80, and Gonzalez, J. E. and R. Y. Tsien (1997) “Improved indicators of cell membrane potential that use fluorescence resonance energy transfer” Chem Biol 4(4): 269-77) in combination with instrumentation for measuring fluorescence changes such as the Voltage/Ion Probe Reader (VIPR) (See, Gonzalez, J. E., K. Oades, et al. (1999) “Cell-based assays and instrumentation for screening ion-channel targets” Drug Discov Today 4(9): 431-439).
These voltage sensitive assays are based on the change in fluorescence resonant energy transfer (FRET) between the membrane-soluble, voltage-sensitive dye, DiSBAC2(3), and a fluorescent phospholipid, CC2-DMPE, which is attached to the outer leaflet of the plasma membrane and acts as a FRET donor. Changes in membrane potential (Vm) cause the negatively charged DiSBAC2(3) to redistribute across the plasma membrane and the amount of energy transfer from CC2-DMPE changes accordingly. The changes in fluorescence emission were monitored using VIPR™ II, which is an integrated liquid handler and fluorescent detector designed to conduct cell-based screens in 96- or 384-well microtiter plates.
To identify small molecules that correct the trafficking defect associated with F508del; a single-addition HTS assay format was developed. The cells were incubated in serum-free medium for 16 hrs at 37° C. in the presence or absence (negative control) of test compound. As a positive control, cells plated in 384-well plates were incubated for 16 hrs at 27° C. to “temperature-correct” F508del. The cells were subsequently rinsed 3× with Krebs Ringers solution and loaded with the voltage-sensitive dyes. To activate F508del, 10 μM forskolin and the CFTR potentiator, genistein (20 μM), were added along with Cl^−-free medium to each well. The addition of Cl^−-free medium promoted Cl^− efflux in response to F508del activation and the resulting membrane depolarization was optically monitored using the FRET-based voltage-sensor dyes.
• Bath Solution #1: (in mM) NaCl 160, KCl 4.5, CaCl2 2, MgCl2 1, HEPES 10, pH 7.4 with NaOH. • Chloride-free bath solution: Chloride salts in Bath Solution #1 (above) are substituted with gluconate salts. • CC2-DMPE: Prepared as a 10 mM stock solution in DMSO and stored at −20° C. • DiSBAC2(3): Prepared as a 10 mM stock in DMSO and stored at −20° C. Cell Culture
as §1, with “seeded at 30,000/well in 384-well” for “seeded at 12,000 cells/well in 384-well”, “cultured for 2 hrs at” for “cultured for 18-24 hrs at”, “37° C. before culturing at 27° C. for 24 hrs for the” for “37° C. for the”, “cultured at 27° C. or 37° C.” for “cultured at 37° C.”, “compounds for 16-24 hours.” for “compounds for 18-24 hours.”

T1 sequence (P13569 with tags, fused parts or gaps DEL508-508): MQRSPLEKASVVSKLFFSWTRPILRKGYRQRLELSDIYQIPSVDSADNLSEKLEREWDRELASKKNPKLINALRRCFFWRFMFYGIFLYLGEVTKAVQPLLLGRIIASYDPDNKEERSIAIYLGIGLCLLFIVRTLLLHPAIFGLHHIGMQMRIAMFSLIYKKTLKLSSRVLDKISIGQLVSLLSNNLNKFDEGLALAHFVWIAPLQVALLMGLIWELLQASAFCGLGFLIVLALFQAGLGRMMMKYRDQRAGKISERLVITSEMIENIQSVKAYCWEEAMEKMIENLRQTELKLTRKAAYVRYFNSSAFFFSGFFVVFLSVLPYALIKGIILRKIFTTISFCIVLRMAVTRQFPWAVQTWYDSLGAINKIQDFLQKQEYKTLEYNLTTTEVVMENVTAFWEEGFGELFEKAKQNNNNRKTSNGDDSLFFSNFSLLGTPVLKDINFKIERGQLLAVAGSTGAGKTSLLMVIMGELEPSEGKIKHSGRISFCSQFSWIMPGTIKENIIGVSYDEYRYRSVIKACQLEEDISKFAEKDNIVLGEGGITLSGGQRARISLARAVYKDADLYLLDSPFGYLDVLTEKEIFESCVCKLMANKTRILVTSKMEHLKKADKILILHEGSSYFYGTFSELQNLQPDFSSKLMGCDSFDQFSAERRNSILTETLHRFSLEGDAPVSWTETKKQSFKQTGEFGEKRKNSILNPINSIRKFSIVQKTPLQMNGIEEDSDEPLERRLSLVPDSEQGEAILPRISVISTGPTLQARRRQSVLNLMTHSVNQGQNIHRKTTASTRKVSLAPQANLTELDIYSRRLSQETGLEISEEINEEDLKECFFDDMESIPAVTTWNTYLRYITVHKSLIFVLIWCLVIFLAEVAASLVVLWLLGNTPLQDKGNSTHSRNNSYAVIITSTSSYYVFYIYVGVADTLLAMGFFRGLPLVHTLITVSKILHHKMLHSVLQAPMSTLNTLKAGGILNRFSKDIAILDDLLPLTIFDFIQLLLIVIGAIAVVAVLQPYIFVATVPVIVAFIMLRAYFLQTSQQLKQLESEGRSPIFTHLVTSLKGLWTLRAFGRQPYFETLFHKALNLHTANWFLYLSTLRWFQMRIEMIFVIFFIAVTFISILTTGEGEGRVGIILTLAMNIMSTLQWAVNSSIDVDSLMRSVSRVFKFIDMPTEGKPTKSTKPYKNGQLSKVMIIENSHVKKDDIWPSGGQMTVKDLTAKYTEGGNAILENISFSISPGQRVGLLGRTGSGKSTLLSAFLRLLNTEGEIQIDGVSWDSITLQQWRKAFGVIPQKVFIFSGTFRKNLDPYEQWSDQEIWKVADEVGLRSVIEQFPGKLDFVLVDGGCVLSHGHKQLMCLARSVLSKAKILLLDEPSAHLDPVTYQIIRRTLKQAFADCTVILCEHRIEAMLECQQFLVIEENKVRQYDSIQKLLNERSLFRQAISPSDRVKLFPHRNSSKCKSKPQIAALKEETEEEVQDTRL

Row | SMILES | Emax | EC50
1 | CC(C)Oc1nc(C(C)(C)C)ccc1C(=O)NS(=O)(=O)c1cccc(N)n1 [Compound 45, N-[(6-amino-2-pyridyl)sulfonyl]-6-tert-butyl-2-isopropoxy-pyridine-3-carboxamide] | 30 to 80% | 3 to 10 µM
2 | CCN(CC)c1nc(-c2cc(F)cc(OCC(C)C)c2)ccc1C(=O)NS(=O)(=O)c1ccn[nH]1 [Compound 46, 2-(diethylamino)-6-(3-fluoro-5-isobutoxy-phenyl)-N-(1H-pyrazol-5-ylsulfonyl)pyridine-3-carboxamide] | 30 to 80% | < 3 µM
3 | CCC(CC)Oc1nc(-c2cc(F)cc(OCC(C)C)c2)ccc1C(=O)NS(=O)(=O)c1cccc(N)n1 [Compound 47, N-[(6-amino-2-pyridyl)sulfonyl]-2-(1-ethylpropoxy)-6-(3-fluoro-5-isobutoxy-phenyl)pyridine-3-carboxamide] | > 80% | < 3 µM
4 | CC(C)COc1cc(F)cc(-c2ccc(C(=O)NS(=O)(=O)c3cccc(N)n3)c(OCC(F)(F)F)n2)c1 [Compound 48, N-[(6-amino-2-pyridyl)sulfonyl]-6-(3-fluoro-5-isobutoxy-phenyl)-2-(2,2,2-trifluoroethoxy)pyridine-3-carboxamide] | 30 to 80% | 3 to 10 µM
5 | C=C(C)COc1nc(-c2cc(F)cc(OCC(C)C)c2)ccc1C(=O)NS(=O)(=O)c1cccc(N)n1 [Compound 49, N-[(6-amino-2-pyridyl)sulfonyl]-6-(3-fluoro-5-isobutoxy-phenyl)-2-(2-methylallyloxy)pyridine-3-carboxamide] | > 80% | < 3 µM
6 | CC(C)COc1cc(F)cc(-c2ccc(C(=O)NS(=O)(=O)c3ccn[nH]3)c(NCCC(C)(C)C)n2)c1 [Compound 50, 2-(3,3-dimethylbutylamino)-6-(3-fluoro-5-isobutoxy-phenyl)-N-(1H-pyrazol-5-ylsulfonyl)pyridine-3-carboxamide] | 30 to 80% | 3 to 10 µM
7 | COCC(C)(C)Oc1nc(-c2cc(F)cc(OCC(C)C)c2)ccc1C(=O)NS(=O)(=O)c1cccc(N)n1 [Compound 51, N-[(6-amino-2-pyridyl)sulfonyl]-6-(3-fluoro-5-isobutoxy-phenyl)-2-(2-methoxy-1,1-dimethyl-ethoxy)pyridine-3-carboxamide] | 30 to 80% | < 3 µM
8 | CC(C)COc1cc(F)cc(-c2ccc(C(=O)NS(=O)(=O)c3cccc(N)n3)c(N(C)CC(C)(C)C)n2)c1 [Compound 52, N-[(6-amino-2-pyridyl)sulfonyl]-2-[2,2-dimethylpropyl(methyl)amino]-6-(3-fluoro-5-isobutoxy-phenyl)pyridine-3-carboxamide] | > 80% | < 3 µM
9 | CCN(CC)c1nc(-c2cc(F)cc(OCC(C)C)c2)ccc1C(=O)NS(=O)(=O)c1cccc(N)n1 [Compound 53, N-[(6-amino-2-pyridyl)sulfonyl]-2-(diethylamino)-6-(3-fluoro-5-isobutoxy-phenyl)pyridine-3-carboxamide] | > 80% | < 3 µM
10 | CC(C)COc1cc(F)cc(-c2ccc(C(=O)NS(=O)(=O)c3cccc(N)n3)c(NC(C)C(C)C)n2)c1 (centres unmarked) [Compound 54, N-[(6-amino-2-pyridyl)sulfonyl]-2-(1,2-dimethylpropylamino)-6-(3-fluoro-5-isobutoxy-phenyl)pyridine-3-carboxamide] | 30 to 80% | 3 to 10 µM
11 | CC(C)COc1cc(F)cc(-c2ccc(C(=O)NS(=O)(=O)c3cccc(N)n3)c(OCCOC(C)C)n2)c1 [Compound 55, N-[(6-amino-2-pyridyl)sulfonyl]-6-(3-fluoro-5-isobutoxy-phenyl)-2-(2-isopropoxyethoxy)pyridine-3-carboxamide] | 30 to 80% | < 3 µM
12 | CCCC(C)Oc1nc(-c2cc(F)cc(OCC(C)C)c2)ccc1C(=O)NS(=O)(=O)c1cccc(N)n1 (centres unmarked) [Compound 56, N-[(6-amino-2-pyridyl)sulfonyl]-6-(3-fluoro-5-isobutoxy-phenyl)-2-(1-methylbutoxy)pyridine-3-carboxamide] | > 80% | < 3 µM
13 | CC(C)COc1cc(F)cc(-c2ccc(C(=O)NS(=O)(=O)c3cccc(N)n3)c(OCC(C)(F)F)n2)c1 [Compound 57, N-[(6-amino-2-pyridyl)sulfonyl]-2-(2,2-difluoropropoxy)-6-(3-fluoro-5-isobutoxy-phenyl)pyridine-3-carboxamide] | 30 to 80% | < 3 µM
14 | CC(C)COc1cc(F)cc(-c2ccc(C(=O)NS(=O)(=O)c3cccc(N)n3)c(NC(C)(C)C)n2)c1 [Compound 58, N-[(6-amino-2-pyridyl)sulfonyl]-2-(tert-butylamino)-6-(3-fluoro-5-isobutoxy-phenyl)pyridine-3-carboxamide] | > 80% | < 3 µM
15 | CC[C@@H](C)Oc1nc(-c2cc(F)cc(OCC(C)C)c2)ccc1C(=O)NS(=O)(=O)c1cccc(N)n1 [Compound 59, N-[(6-amino-2-pyridyl)sulfonyl]-6-(3-fluoro-5-isobutoxy-phenyl)-2-[(1R)-1-methylpropoxy]pyridine-3-carboxamide] | 30 to 80% | < 3 µM
16 | COCCOc1nc(-c2cc(F)cc(OCC(C)C)c2)ccc1C(=O)NS(=O)(=O)c1cccc(N)n1 [Compound 60, N-[(6-amino-2-pyridyl)sulfonyl]-6-(3-fluoro-5-isobutoxy-phenyl)-2-(2-methoxyethoxy)pyridine-3-carboxamide] | 30 to 80% | < 3 µM
17 | CC(C)COc1cc(F)cc(-c2ccc(C(=O)NS(=O)(=O)c3cccc(N)n3)c(N(C)CC(C)C)n2)c1 [Compound 61, N-[(6-amino-2-pyridyl)sulfonyl]-6-(3-fluoro-5-isobutoxy-phenyl)-2-[isobutyl(methyl)amino]pyridine-3-carboxamide] | > 80% | < 3 µM
18 | CCCC(C)C(C)Oc1nc(-c2cc(F)cc(OCC(C)C)c2)ccc1C(=O)NS(=O)(=O)c1cccc(N)n1 (centres unmarked) [Compound 62, N-[(6-amino-2-pyridyl)sulfonyl]-2-(1,2-dimethylpentoxy)-6-(3-fluoro-5-isobutoxy-phenyl)pyridine-3-carboxamide] | 30 to 80% | < 3 µM
19 | CCCCOc1nc(-c2cc(F)cc(OCC(C)C)c2)ccc1C(=O)NS(=O)(=O)c1cccc(N)n1 [Compound 63, N-[(6-amino-2-pyridyl)sulfonyl]-2-butoxy-6-(3-fluoro-5-isobutoxy-phenyl)pyridine-3-carboxamide] | > 80% | < 3 µM
20 | CCCN(C)c1nc(-c2cc(F)cc(OCC(C)C)c2)ccc1C(=O)NS(=O)(=O)c1cccc(N)n1 [Compound 64, N-[(6-amino-2-pyridyl)sulfonyl]-6-(3-fluoro-5-isobutoxy-phenyl)-2-[methyl(propyl)amino]pyridine-3-carboxamide] | > 80% | < 3 µM
21 | COC[C@@H](C)Oc1nc(-c2cc(F)cc(OCC(C)C)c2)ccc1C(=O)NS(=O)(=O)c1cccc(N)n1 [Compound 65, N-[(6-amino-2-pyridyl)sulfonyl]-6-(3-fluoro-5-isobutoxy-phenyl)-2-[(1R)-2-methoxy-1-methyl-ethoxy]pyridine-3-carboxamide] | 30 to 80% | < 3 µM
22 | CC(C)COc1cc(F)cc(-c2ccc(C(=O)NS(=O)(=O)c3cccc(N)n3)c(N(C)CC(F)(F)F)n2)c1 [Compound 66, N-[(6-amino-2-pyridyl)sulfonyl]-6-(3-fluoro-5-isobutoxy-phenyl)-2-[methyl(2,2,2-trifluoroethyl)amino]pyridine-3-carboxamide] | > 80% | < 3 µM

From patent publication US10738030B2, “Modulators of cystic fibrosis transmembrane conductance regulator” (Vertex Pharmaceuticals Incorporated, priority 2016, dated 2020)
